Data: US8653102B2, “Substituted 2-oxo- and 2-thioxo-dihydroquinoline-3-carboxamides as KCNQ2/3 modulators” (Gruenenthal GmbH, priority 2010, dated 2014)

Experiments:
KCNQ2/3 channels = target: T1, KCNQ2/3 channels (Homo sapiens, UniProt O43525+O43526); assay: Fluorescence assay using a voltage sensitive dye (fluorimetry); type: cell-based; conditions: CHO-K1 cells expressing KCNQ2/3 channels; for Emax: relative to retigabine (RTG) = 100%, read-out: Fluorimetry % efficacy (RTG = 100%)
T1 construct: expressed in transfected cells; host or cells: CHO-K1 cells kept under selection antibiotics
Experimental: Pharmacological Experiments Method I. Fluorescence Assay Using a Voltage Sensitive Dye (Fluorimetry)
[…] CHO-K1 cells expressing KCNQ2/3 channels are cultivated adherently at 37° C., 5% CO2 and 95% humidity in cell culture bottles (e.g. 80 cm^2 TC flasks, Nunc) with DMEM-high glucose (Sigma Aldrich, D7777) including 10% FCS (PAN Biotech, e.g. 3302-P270521) or alternatively MEM Alpha Medium (1×, liquid, Invitrogen, #22571), 10% fetal calf serum (FCS) (Invitrogen, #10270-106, heat-inactivated) and the necessary selection antibiotics.
Before being sown out for the measurements, the cells are washed with 1×DPBS buffer Ca^2+/Mg^2+-free (e.g. Invitrogen, #14190-094) and detached from the bottom of the culture vessel by using Accutase (PAA Laboratories, #L11-007) (incubation with Accutase for 15 min at 37° C.). The cell number is determined using a CASY™ cell counter (TCC, Schärfe System). Depending on the optimal density for each individual cell line, 20,000-30,000 cells/well/100 μl are seeded onto 96-well Corning™ CellBIND™ assay plates (Flat Clear Bottom Black Polystyrene Microplates, #3340). Freshly seeded cells are then left to settle for one hour at room temperature, followed by incubation for 24 hours at 37° C., 5% CO2 and 95% humidity.
The voltage-sensitive fluorescent dye from the Membrane Potential Assay Kit (Red™ Bulk format part R8123 for FLIPR, MDS Analytical Technologies™) is prepared by dissolving the contents of one vessel Membrane Potential Assay Kit Red Component A in 200 ml of extracellular buffer (ES buffer, 120 mM NaCl, 1 mM KCl, 10 mM HEPES, 2 mM CaCl2, 2 mM MgCl2, 10 mM glucose; pH 7.4). After removal of the nutrient medium, the cells are washed once with 200 μl of ES buffer, then loaded for 45 min at room temperature in 100 μl of dye solution in the dark.
Fluorescence measurements are carried out in a BMG Labtech FLUOstar™, BMG Labtech NOVOstar™ or BMG Labtech POLARstar™ instrument (525 nm excitation, 560 nm emission, Bottom Read mode). After incubation with the dye, 50 μl of the test substances in the desired concentrations, or 50 μl of ES buffer for control purposes, are applied to the wells of the assay plate and incubated for 30 min at room temperature while being shielded from light. The fluorescence intensity of the dye is then measured for 5 min and the fluorescence value F1 of each well is thus determined at a given, constant time. 15 μl of a KCl solution are then added to each well (final concentration of potassium ions 92 mM). The change in fluorescence intensity is subsequently monitored until all the relevant values have been obtained (mainly 5-30 min). At a given time post KCl application, a fluorescence value F2 is determined, in this case at the time of the fluorescence peak.
For calculation, the fluorescence intensity F2 is corrected for the fluorescence intensity F1, and the activity (ΔF/F) of the target compound on the potassium channel is determined as follows:
In order to determine whether a substance has agonistic activity,
A substance has an agonistic activity on the potassium channel if
[formula] increases dose dependently.
Calculations of EC50 and IC50 values are carried out with the aid of ‘Prism v4.0’ software (GraphPad Software™).

rat = assay: Low-intensity tail flick test (rat); type: in vivo; conditions: for ED50: po, peroral, at time of maximum efficacy
Experimental: Method II. Low-Intensity Tail Flick Test (Rat)
In the low-intensity tail flick test, the determination of the antinociceptive effect of the compounds according to the invention towards an acute noxious thermal stimulus is carried out by measuring the withdrawal reflex of the rat tail (tail flick) in response to a radiant heat beam (analgesia meter; model 2011 of the company Rhema Labortechnik, Hofheim, Germany) according to the method described by D'Amour and Smith (J. Pharm. Exp. Ther. 72, 74 79 (1941). To this end, the rats were placed in a plexiglas restrainer, and a low-intensity radiant heat beam (48° C.) was focused onto the dorsal surface of the tail root. The stimulus intensity was adjusted to result in a mean pre-drug control withdrawal latency of about 7 s, thus also allowing a supraspinal modulation of the spinally mediated acute nociceptive reflex. A cutoff time of 30 s was applied to avoid tissue damage. Male Sprague-Dawley rats (Janvier, Le Genest St. Isle, Frankreich) with weights of 200-250 g were used. 10 rats were used per group. Before administration of a compound according to the invention, the animals were pre-tested twice in the course of five minutes and the mean of these measurements was calculated as the pre-test mean. The antinociceptive effect was determined at 20, 40 and 60 min after peroral compound administration. The antinociceptive effect was calculated based on the increase in the tail withdrawal latency according to the following formula and is expressed as percentage of the maximum possible effect (MPE [%]): MPE=[(T1−T0)/(T2−T0)]*100
In this, T0 is the control latency time before and T1 the latency time after administration of the compound, T2 is the cutoff time and MPE is the maximum possible effect. Employing variant analysis (repeated measures ANOVA) allowed testing of statistically significant differences between the compounds according to the invention and the vehicle group. The significance level was set to p≦0.05. To determine the dose dependency, the particular compound according to the invention was administered in 3-5 logarithmically increasing doses, including a threshold dose and a maximum effective dose, and the ED50 values were determined with the aid of regression analysis. The ED50 calculation was performed at the time of maximum efficacy (usually 20 min after administration of the compounds).

| SMILES | EC50 (KCNQ2/3 channels) [nM] | Emax (KCNQ2/3 channels) [%] | ED50 (rat) [mg/kg] | Low intensity tail flick, rat, peroral, MPE (dose) (rat; dose 10.00 mg/kg) | Low intensity tail flick, rat, peroral, MPE (dose) (rat; dose 3.16 mg/kg) |
| --- | --- | --- | --- | --- | --- |
| Cc1c(C(=O)NCc2cccc(F)c2)c(=O)n(C)c2cc(C(F)(F)F)ccc12 [Example 1, N-[(3-fluorophenyl)-methyl]-1,4-dimethyl-2-oxo-7-(trifluoromethyl)-1H-quinoline-3-carboxylic acid amide] | 245 | 177 | 2.3 |  |  |
| Cc1c(C(=O)NCc2cccc(F)c2)c(=S)n(C)c2cc(C(F)(F)F)ccc12 [Example 3, N-[(3-fluorophenyl)-methyl]-1,4-dimethyl-2-thioxo-7-(trifluoromethyl)-1H-quinoline-3-carboxylic acid amide] | 124 | 101 |  | 24 (10.00) % |  |
| COCCn1c(=O)c(C(=O)NCc2cccc(F)c2)c(C)c2ccc(C(F)(F)F)cc21 [Example 4, N-[(3-fluorophenyl)-methyl]-1-(2-methoxy-ethyl)-4-methyl-2-oxo-7-(trifluoromethyl)-1H-quinoline-3-carboxylic acid amide] | 850 | 195 | 2.8 |  |  |
| Cc1c(C(=O)NCc2ccc(F)cc2)c(=O)n(C)c2cc(C(F)(F)F)ccc12 [Example 6, N-[(4-fluorophenyl)-methyl]-1,4-dimethyl-2-oxo-7-(trifluoromethyl)-1H-quinoline-3-carboxylic acid amide] | 189 | 169 | 0.6 |  |  |
| COCCn1c(=O)c(C(=O)NCc2ccc(F)cc2)c(C)c2ccc(C(F)(F)F)cc21 [Example 7, N-[(4-fluorophenyl)-methyl]-1-(2-methoxy-ethyl)-4-methyl-2-oxo-7-(trifluoromethyl)-1H-quinoline-3-carboxylic acid amide] | 598 | 146 |  |  | 47 (3.16) % |
| COCC(C)n1c(=O)c(C(=O)NCc2cccc(F)c2)c(C)c2ccc(C(F)(F)F)cc21 (stereo not shown) [Example 35, N-[(3-fluorophenyl)-methyl]-1-(2-methoxy-1-methyl-ethyl)-4-methyl-2-oxo-7-(trifluoromethyl)-1H-quinoline-3-carboxylic acid amide] | 114 | 118 |  |  |  |
| Cc1c(C(=O)NCc2ccc(F)cc2)c(=S)n(C)c2cc(C(F)(F)F)ccc12 [Example 36, N-[(4-fluorophenyl)-methyl]-1,4-dimethyl-2-thioxo-7-(trifluoromethyl)-1H-quinoline-3-carboxylic acid amide] | 126 | 99 |  |  |  |
| Cc1c(C(=O)NCc2cccc(F)c2)c(=O)n(C)c2cc(Cl)ccc12 [Example 37, 7-chloro-N-[(3-fluorophenyl)-methyl]-1,4-dimethyl-2-oxo-1H-quinoline-3-carboxylic acid amide] | 729 | 139 |  |  |  |
| Cc1c(C(=O)NCc2cccc(F)c2)c(=O)n(CCO)c2cc(C(F)(F)F)ccc12 [Example 38, N-[(3-fluorophenyl)-methyl]-1-(2-hydroxy-ethyl)-4-methyl-2-oxo-7-(trifluoromethyl)-1H-quinoline-3-carboxylic acid amide] | 1830 | 160 |  |  |  |
| CCOCCn1c(=O)c(C(=O)NCc2cccc(F)c2)c(C)c2ccc(C(F)(F)F)cc21 [Example 39, 1-(2-ethoxy-ethyl)-N-[(3-fluorophenyl)-methyl]-4-methyl-2-oxo-7-(trifluoromethyl)-1H-quinoline-3-carboxylic acid amide] |  | 43 |  |  |  |
| Cc1c(C(=O)NCc2cccc(F)c2)c(=O)n(C(C)C)c2cc(C(F)(F)F)ccc12 [Example 40, N-[(3-fluorophenyl)-methyl]-1-isopropyl-4-methyl-2-oxo-7-(trifluoromethyl)-1H-quinoline-3-carboxylic acid amide] | 75 | 145 |  |  |  |
| CCCCCn1c(=O)c(C(=O)NCc2cccc(F)c2)c(C)c2ccc(C(F)(F)F)cc21 [Example 41, N-[(3-fluorophenyl)-methyl]-4-methyl-2-oxo-1-pentyl-7-(trifluoromethyl)-1H-quinoline-3-carboxylic acid amide] |  | 18 |  |  |  |
| Cn1c(=O)c(C(=O)NCc2cccc(F)c2)c(C(F)(F)F)c2ccccc21 [Example 42, N-[(3-fluorophenyl)-methyl]-1-methyl-2-oxo-4-(trifluoromethyl)-1H-quinoline-3-carboxylic acid amide] | 4990 | 103 |  |  |  |
| COC(C)Cn1c(=O)c(C(=O)NCc2cccc(F)c2)c(C)c2ccc(C(F)(F)F)cc21 (stereo not shown) [Example 43, N-[(3-fluorophenyl)-methyl]-1-(2-methoxy-propyl)-4-methyl-2-oxo-7-(trifluoromethyl)-1H-quinoline-3-carboxylic acid amide] | 1680 | 100 |  |  |  |
| Cc1c(C(=O)NCc2cccc(F)c2)c(=O)n(C2CCOCC2)c2cc(C(F)(F)F)ccc12 [Example 44, N-[(3-fluorophenyl)-methyl]-4-methyl-2-oxo-1-tetrahydro-pyran-4-yl-7-(trifluoromethyl)-1H-quinoline-3-carboxylic acid amide] |  | 36 |  |  |  |
| COc1c(C(=O)NCc2cccc(F)c2)c(=O)n(C)c2cc(C(F)(F)F)ccc12 [Example 45, N-[(3-fluorophenyl)-methyl]-4-methoxy-1-methyl-2-oxo-7-(trifluoromethyl)-1H-quinoline-3-carboxylic acid amide] | 215 | 190 |  |  |  |
